Experimental data: US11370774B2, “Substituted benzofuran, benzopyrrole, benzothiophene, and structurally related complement inhibitors” (BioCryst Pharmaceuticals, Inc., priority 2018, dated 2022)

Target: Factor D (Homo sapiens (Human), UniProt P00746)
Assay: Factor D esterolytic assay (Z-Lys-SBzl substrate, DTNB, 405 nm)
Type: biochemical
Details: Z-Lys-SBzl 1.29 mM, pH 7.5, 10% DMSO, tested a minimum of three times, read-out: Measured Ki (IC50) Value for Compounds: IC50
Outline: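 Human Factor D ([…]) with 1.29 mM Z-Lys-SBzl in 100 mM HEPES, 500 mM NaCl, pH 7.5, 10% DMSO; substrate added immediately or after room-temperature preincubation. Released thiol reacted with DTNB, rate followed at 405 nm for 600 sec, 690 nm background subtracted. IC50 from percent inhibition versus uninhibited rate, n≥3.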

Factor D, sequence (P00746 26-253): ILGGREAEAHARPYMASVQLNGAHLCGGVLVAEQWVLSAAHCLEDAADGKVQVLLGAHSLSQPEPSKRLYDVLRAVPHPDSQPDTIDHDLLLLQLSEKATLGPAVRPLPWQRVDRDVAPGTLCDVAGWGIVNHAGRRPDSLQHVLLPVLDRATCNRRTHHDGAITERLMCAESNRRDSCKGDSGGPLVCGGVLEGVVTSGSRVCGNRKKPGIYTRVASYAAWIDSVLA

| IC50 | Compound |
| --- | --- |
| < 1000 nM | CC(C)n1ccc2c(-c3ccnc(CN)c3F)cc(COc3ccccc3CC(=O)O)cc21 [Compound 121b, 2-(2-((4-(2-(aminomethyl)-3-fluoropyridin-4-yl)-1-isopropyl-1H-indol-6-yl)methoxy)phenyl)acetic acid] |
| < 1000 nM | NCc1cccc(-c2cc(COc3ccccc3CC(=O)O)cc3occc23)c1F [Compound 122b, 2-(2-((4-(3-(aminomethyl)-2-fluorophenyl)benzofuran-6-yl)methoxy)phenyl)acetic acid] |
| < 1000 nM | NCc1cc(-c2cc(COc3ccccc3CC(=O)O)cc3occc23)ccn1 [Compound 123d, 2-(2-((4-(2-(aminomethyl)pyridin-4-yl)benzofuran-6-yl)methoxy)phenyl)acetic acid] |
| < 1000 nM | NCc1cccc(-c2cc(COc3ccccc3CC(=O)O)cc3[nH]ncc23)c1F [Compound 124g, 2-(2-((4-(3-(aminomethyl)-2-fluorophenyl)-1H-indazol-6-yl)methoxy)phenyl)acetic acid] |
| > 10000 nM | NCc1cccc(-c2cc(C(=O)Nc3ccccc3CC(=O)O)cn3ccnc23)c1 [Compound 125c, 2-(2-(8-(3-(aminomethyl)phenyl)imidazo[1,2-a]pyridine-6-carboxamido)phenyl)acetic acid] |
| < 1000 nM | NCc1cccc(-c2cc(COc3ccccc3CC(=O)O)cc3c2cnn3CC2CC2)c1 [Compound 126h, 2-(2-((4-(3-(aminomethyl)phenyl)-1-(cyclopropylmethyl)-1H-indazol-6-yl)methoxy)phenyl)acetic acid] |
| < 1000 nM | NCc1cccc(-c2cc(COc3ccccc3CC(=O)O)cc3c2cnn3CC2CC2)c1F [Compound 127b, 2-(2-((4-(3-(aminomethyl)-2-fluorophenyl)-1-(cyclopropylmethyl)-1H-indazol-6-yl)methoxy)phenyl)acetic acid] |
| < 1000 nM | Cn1ncc2c(-c3cccc(CN)c3F)cc(COc3ccccc3CC(=O)O)cc21 [Compound 128g, 2-(2-((4-(3-(aminomethyl)-2-fluorophenyl)-1-methyl-1H-indazol-6-yl)methoxy)phenyl)acetic acid] |
| < 1000 nM | Cn1cc2c(-c3cccc(CN)c3F)cc(COc3ccccc3CC(=O)O)cc2n1 [Compound 129e, 2-(2-((4-(3-(aminomethyl)-2-fluorophenyl)-2-methyl-2H-indazol-6-yl)methoxy)phenyl)acetic acid] |
| < 1000 nM | NCc1cccc(-c2cc(COc3ccc(C4CC4)cc3CC(=O)O)cc3ccoc23)c1 [Compound 130g, 2-(2-((7-(3-(aminomethyl)phenyl)benzofuran-5-yl)methoxy)-5-cyclopropylphenyl)acetic acid] |
| < 1000 nM | Cn1ncc2c(-c3cccc(CN)c3)cc(COc3ccccc3CC(=O)O)cc21 [Compound 131b, 2-(2-((4-(3-(aminomethyl)phenyl)-1-methyl-1H-indazol-6-yl)methoxy)phenyl)acetic acid] |
| < 1000 nM | COCc1cc2cc(COc3ccccc3CC(=O)O)cc(-c3ccnc(CN)c3)c2o1 [Compound 132b, 2-(2-((7-(2-(aminomethyl)pyridin-4-yl)-2-(methoxymethyl)benzofuran-5-yl)methoxy)phenyl)acetic acid] |

Continued, compound first:

| Compound | IC50 |
| --- | --- |
| NCc1cccc(-c2cc(COc3ccccc3CC(=O)O)cc3cc(C(O)C4CC4)oc23)c1 (stereo not shown) [Compound 105c, 2-(2-((7-(3-(aminomethyl)phenyl)-2-(cyclopropyl(hydroxy)methyl)benzofuran-5-yl)methoxy)phenyl)acetic acid] | < 1000 nM |
| NCc1cncc(-c2cc(COc3ccccc3CC(=O)O)cc3ccoc23)c1 [Compound 106c, 2-(2-((7-(5-(aminomethyl)pyridin-3-yl)benzofuran-5-yl)methoxy)phenyl)acetic acid] | 1000 to 10000 nM |
| NCc1cccc(-c2cc(COc3ccccc3CC(=O)O)cc3nccn23)c1 [Compound 107f, 2-(2-((5-(3-(aminomethyl)phenyl)imidazo[1,2-a]pyridin-7-yl)methoxy)phenyl)acetic acid] | < 1000 nM |
| CC(C)c1cc2cc(COc3ccccc3CC(=O)O)cc(-c3cccc(CN)c3)c2o1 [Compound 108f, 2-(2-((7-(3-(aminomethyl)phenyl)-2-isopropylbenzofuran-5-yl)methoxy)phenyl)acetic acid] | < 1000 nM |
| CC(C)n1ccc2c(-c3cccc(CN)c3)cc(COc3ccccc3CC(=O)O)cc21 [Compound 109g, 2-(2-((4-(3-(aminomethyl)phenyl)-1-isopropyl-1H-indol-6-yl)methoxy)phenyl)acetic acid] | < 1000 nM |
| NCc1ccnc(-c2cc(COc3ccccc3CC(=O)O)cc3ccoc23)c1 [Compound 110c, 2-(2-((7-(4-(aminomethyl)pyridin-2-yl)benzofuran-5-yl)methoxy)phenyl)acetic acid] | < 1000 nM |
| CC(C)n1ccc2c(-c3cccc(CN)c3F)cc(COc3ccccc3CC(=O)O)cc21 [Compound 111b, 2-(2-((4-(3-(aminomethyl)-2-fluorophenyl)-1-isopropyl-1H-indol-6-yl)methoxy)phenyl)acetic acid] | < 1000 nM |
| Cc1cc2cc(COc3ccccc3CC(=O)O)cc(-c3ccnc(CN)c3)c2o1 [Compound 112c, 2-(2-((7-(2-(aminomethyl)pyridin-4-yl)-2-methylbenzofuran-5-yl)methoxy)phenyl)acetic acid] | < 1000 nM |
| Cc1cc2cc(COc3ccccc3CC(=O)O)cc(-c3ccnc(CN)c3F)c2o1 [Compound 113c, 2-(2-((7-(2-(aminomethyl)-3-fluoropyridin-4-yl)-2-methylbenzofuran-5-yl)methoxy)phenyl)acetic acid] | < 1000 nM |
| NCc1cccc(-c2cc(COc3ccccc3CC(=O)O)cc3c(N)noc23)c1 [Compound 114j, 2-(2-((3-amino-7-(3-(aminomethyl)phenyl)benzo[d]isoxazol-5-yl)methoxy)phenyl)acetic acid] | < 1000 nM |
| NCc1cccc(-c2cc(COc3ccccc3CC(=O)O)cc3occc23)c1 [Compound 115f, 2-(2-((4-(3-(aminomethyl)phenyl)benzofuran-6-yl)methoxy)phenyl)acetic acid] | < 1000 nM |
| NCc1cccc(-c2cc(COc3ccccc3CC(=O)O)cc3sccc23)c1 [Compound 116f, 2-(2-((4-(3-(aminomethyl)phenyl)benzo[b]thiophen-6-yl)methoxy)phenyl)acetic acid] | < 1000 nM |
| NCc1cccc(-c2cc(COc3ccccc3CC(=O)O)cc3sccc23)c1F [Compound 117b, 2-(2-((4-(3-(aminomethyl)-2-fluorophenyl)benzo[b]thiophen-6-yl)methoxy)phenyl)acetic acid] | < 1000 nM |
| CC(C)n1ccc2c(-c3ccnc(CN)c3)cc(COc3ccccc3CC(=O)O)cc21 [Compound 118c, 2-(2-((4-(2-(aminomethyl)pyridin-4-yl)-1-isopropyl-1H-indol-6-yl)methoxy)phenyl)acetic acid] | < 1000 nM |
| NCc1cccc(-c2cc(COc3ccccc3CC(=O)O)nc3ccoc23)c1 [Compound 119e, 2-(2-((7-(3-(aminomethyl)phenyl)furo[3,2-b]pyridin-5-yl)methoxy)phenyl)acetic acid] | < 1000 nM |
| COCc1cc2cc(COc3ccccc3CC(=O)O)cc(-c3ccnc(CN)c3F)c2o1 [Compound 120c, 2-(2-((7-(2-(aminomethyl)-3-fluoropyridin-4-yl)-2-(methoxymethyl)benzofuran-5-yl)methoxy)phenyl)acetic acid] | < 1000 nM |
